Reference: US9024027B2, “Derivatives of 1-phenyl-2-pyridinyl alkyl alcohols as phosphodiesterase inhibitors” (Chiesi Farmaceutici S.p.A., priority 2011, dated 2015)

Columns and labels:
[1] = human, microsomes
Description: Test compounds in duplicate at the final concentration of 1 μM are dissolved in DMSO (DMSO final concentration 0.5% v/v) and pre-incubated for 10 minutes at 37° C. in potassium phosphate buffer pH 7.4, 3 mM MgCl2, with liver microsomes at the final concentration of 0.5 mg/ml. After the pre-incubation period, reactions are started by adding the cofactors mixture (NADP, Glc6P, Glc6P-DH); samples are taken at time 0, 5, 10, 15, 20 and 30 minutes, added to acetonitrile to stop reaction and centrifuged. The supernatants are analysed and quantified by LC-MS/MS.
A control sample without cofactors is always added in order to check the stability of test compounds in the matrix. […] Percent loss of substrate in incubation is determined to estimate in-vitro half life and in-vitro intrinsic clearance of compounds. […]
where: • k is calculated from the exponential fitting decay of the area values • V=incubation volume (mL)/mg protein • y=microsomal protein yield=52.5 mg/g liver Method b.
Test compounds are incubated, in duplicate, at the concentration of 1 μM with liver microsomes (0.8 mg protein/mL) in KHB buffer (pH 7.4) at 37° C. in the presence of 1 mM NADPH. […] The supernatant is analysed by LC-MS/MS for unchanged compounds.
Test compounds are incubated with liver microsomes in KHB buffer in the absence of NADPH for 0 and 60 minutes, as control. […] The half-life is calculated from the relationship: […]

[2] = tested on: LPS-induced TNF-α release in peripheral blood mononuclear cells (PBMCs); assay: In vitro determination of PDE4 inhibitory activity in the PBMCs assay (LPS-induced TNF-α release); format: cell-based; details: PBMC; human PBMCs, LPS 3 ng/ml, 18 hours; read-out: PDE4 inhibition (IC50, 50% inhibition of LPS-induced TNF-α release)
Description: The assay, which is based on the known inhibitory activity exerted by PDE4 inhibitors on the lipopolyshaccarides (LPS)-induced tumour necrosis factor-alpha (TNF-α release in peripheral blood mononuclear cells (PBMCs), was performed according to a method previously described (Hatzelmann A et al., J. Pharmacol. Exp. Ther., 2001; 297:267-279; and Draheim R et al., J. Pharmacol. Exp. Ther., 2004; 308:555-563, both of which are incorporated herein by reference in their entireties. Cryopreserved human PBMCs, (100 μl/well) were incubated in 96-well plates (10^5 cells/well), for 30 minutes, in the presence or absence (50 microl) of the test compounds whose concentrations ranged from 10^−12 M to 10^−6 M or from 10^−13 M to 10^−7 M. Subsequently, LPS (3 ng/ml) was added. After 18 hours of incubation at 37° C. in a humidified incubator under an atmosphere of 95% air and 5% CO2, culture medium was collected and TNF-α measured by ELISA.
The results of the tested compounds, representatives of the invention, expressed as mean±95% confidence limits of the molar concentration of the test compound producing 50% inhibition of LPS-induced TNF-α release (IC50) are shown in the following Table: […]

For O=C(Cn1c(=O)oc2ccccc21)O[C@@H](Cc1c(Cl)c[n+]([O-])cc1Cl)c1ccc(OC(F)F)c(OCC2CC2)c1 [Compound 24], the “intrinsic Clearance” value [1] was greater than 15 mL/min/g.

For CS(=O)(=O)N(CCN1CCOCC1)c1ccc2c(c1)CC(=O)N2CC(=O)O[C@@H](Cc1c(Cl)c[n+]([O-])cc1Cl)c1ccc(OC(F)F)c(OCC2CC2)c1 [Compound 243, (S)-3,5-dichloro-4-(2-(3-(cyclopropylmethoxy)-4-(difluoromethoxy)phenyl)-2-(2-(5-(N-(2-morpholinoethyl)methylsulfonamido)-2-oxoindolin-1-yl)acetoxy)ethyl)pyridine 1-oxide], the IC50 [2] was less than 1 nM.

In the case of CS(=O)(=O)N(CCN1CCOCC1)Cc1ccc2c(c1)C(=O)N(CC(=O)O[C@@H](Cc1c(Cl)c[n+]([O-])cc1Cl)c1ccc(OC(F)F)c(OCC3CC3)c1)C2=O [Compound 258, (S)-3,5-dichloro-4-(2-(3-(cyclopropylmethoxy)-4-(difluoromethoxy)phenyl)-2-(2-(5-((N-(2-morpholinoethyl)methylsulfonamido)methyl)-1,3-dioxoisoindolin-2-yl)acetoxy)ethyl)pyridine 1-oxide], the IC50 [2] is reported as less than 1 nM.

For O=C(CN1C(=O)c2ccccc2C1=O)O[C@@H](Cc1c(Cl)c[n+]([O-])cc1Cl)c1ccc(OC(F)F)c(OC2CCOC2)c1 (stereo partly drawn) [Compound 261, 3,5-dichloro-4-((2S)-2-(4-(difluoromethoxy)-3-(tetrahydrofuran-3-yloxy)phenyl)-2-(2-(1,3-dioxoisoindolin-2-yl)acetoxy)-ethyl)pyridine 1-oxide], the IC50 [2] was less than 1 nM.

O=C(CN1C(=O)Cc2ccccc2C1=O)O[C@@H](Cc1c(Cl)c[n+]([O-])cc1Cl)c1ccc(OC(F)F)c(OCC2CC2)c1 [Compound 263, (S)-3,5-dichloro-4-(2-(3-(cyclopropylmethoxy)-4-(difluoromethoxy)phenyl)-2-(2-(1,3-dioxo-3,4-dihydroisoquinolin-2(1H)-yl)acetoxy)ethyl)pyridine 1-oxide] showed an IC50 [2] of 1 to 10 nM.
